{"source": "PubChem BioAssay AID248", "about": "(DTP/NCI, 2004)", "test_system": "L1210 leukemia ip in BDF1 mice, survival T/C", "experiment": "NCI In Vivo Anticancer Drug Screen. Data for tumor model L1210 Leukemia (intraperitoneal) in B6D2F1 (BDF1) mice", "conditions": "higher = longer survival", "procedure,_shortened": "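In this screen, tumor-bearing mice given compound are compared to those given vehicle, and their survival values are reported as a treated-to-control quotient.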", "note": "Values joined by “and” are separate entries in the source; they are usually repeats but may differ in a detail not shown here. Identical values can stand only once. Inconclusive results and toxic doses are left out.", "data": [{"smiles": "CCOC(=O)CP(=O)(OCC)OCC", "values": [{"measurement": "T/C", "setting": "endpoint: mean survival time, dose: 100.0 mg/kg/injection, schedule: Q01DX009 (ip), vehicle: saline", "result": "103 % of control"}, {"measurement": "T/C", "setting": "endpoint: mean survival time, dose: 100.0 mg/kg/injection, schedule: Q04DX003 (ip), vehicle: saline", "result": "109 % of control"}, {"measurement": "T/C", "setting": "endpoint: mean survival time, dose: 200.0 mg/kg/injection, schedule: Q01DX009 (ip), vehicle: saline", "result": "106 % of control"}, {"measurement": "T/C", "setting": "endpoint: mean survival time, dose: 200.0 mg/kg/injection, schedule: Q04DX003 (ip), vehicle: saline", "result": "102 % of control"}, {"measurement": "T/C", "setting": "endpoint: mean survival time, dose: 400.0 mg/kg/injection, schedule: Q01DX009 (ip), vehicle: saline", "result": "99 % of control"}, {"measurement": "T/C", "setting": "endpoint: mean survival time, dose: 400.0 mg/kg/injection, schedule: Q04DX003 (ip), vehicle: saline", "result": "113 % of control"}]}, {"smiles": "COc1ccc([N+](=O)[O-])cc1NC(=O)Nc1cccc(F)c1", "values": [{"measurement": "T/C", "setting": "endpoint: mean survival time, dose: 100.0 mg/kg/injection, schedule: Q01DX009 (ip), vehicle: gum acacia", "result": "90 % of control"}, {"measurement": "T/C", "setting": "endpoint: mean survival time, dose: 200.0 mg/kg/injection, schedule: Q01DX009 (ip), vehicle: gum acacia", "result": "95 % of control"}, {"measurement": "T/C", "setting": "endpoint: mean survival time, dose: 400.0 mg/kg/injection, schedule: Q01DX009 (ip), vehicle: gum acacia", "result": "90 % of control"}]}, {"smiles": "Cc1ccc(NC(=O)Nc2ccc(S(N)(=O)=O)cc2)c([N+](=O)[O-])c1", "values": [{"measurement": "T/C", "setting": "endpoint: mean survival time, dose: 100.0 mg/kg/injection, schedule: Q04DX003 (ip), vehicle: Klucel (hydroxypropylcellulose) (HPC)", "result": "88 % of control"}, {"measurement": "T/C", "setting": "endpoint: mean survival time, dose: 200.0 mg/kg/injection, schedule: Q04DX003 (ip), vehicle: Klucel (hydroxypropylcellulose) (HPC)", "result": "89 % of control"}, {"measurement": "T/C", "setting": "endpoint: mean survival time, dose: 400.0 mg/kg/injection, schedule: Q04DX003 (ip), vehicle: Klucel (hydroxypropylcellulose) (HPC)", "result": "88 % of control"}]}, {"smiles": "O=[N+]([O-])c1ccc(N=Cc2ccccc2O)c(O)c1", "values": [{"measurement": "T/C", "setting": "endpoint: mean survival time, dose: 100.0 mg/kg/injection, schedule: Q01DX001 (ip), vehicle: carboxymethylcellulose (CMC)", "result": "95 % of control"}, {"measurement": "T/C", "setting": "endpoint: mean survival time, dose: 200.0 mg/kg/injection, schedule: Q01DX001 (ip), vehicle: carboxymethylcellulose (CMC)", "result": "104 % of control"}, {"measurement": "T/C", "setting": "endpoint: mean survival time, dose: 400.0 mg/kg/injection, schedule: Q01DX001 (ip), vehicle: carboxymethylcellulose (CMC)", "result": "94 % of control"}]}, {"smiles": "O=C[C@@H](CO)O[C@H](C=O)n1cnc2c(=O)[nH]cnc21", "values": [{"measurement": "T/C", "setting": "endpoint: mean survival time, dose: 35.0 mg/kg/injection, schedule: Q01DX009 (ip), vehicle: saline", "result": "116 % of control"}, {"measurement": "T/C", "setting": "endpoint: mean survival time, dose: 35.0 mg/kg/injection, schedule: Q01DX009 (ip), vehicle: water", "result": "122 % of control"}, {"measurement": "T/C", "setting": "endpoint: mean survival time, dose: 35.0 mg/kg/injection, schedule: Q01DX Z (ip), vehicle: water", "result": "120 % of control"}, {"measurement": "T/C", "setting": "endpoint: mean survival time, dose: 70.0 mg/kg/injection, schedule: Q01DX009 (ip), vehicle: saline", "result": "188 % of control"}, {"measurement": "T/C", "setting": "endpoint: mean survival time, dose: 70.0 mg/kg/injection, schedule: Q01DX009 (ip), vehicle: water", "result": "155 % of control"}, {"measurement": "T/C", "setting": "endpoint: mean survival time, dose: 79.0 mg/kg/injection, schedule: Q01DX009 (oral), vehicle: saline", "result": "93 % of control"}, {"measurement": "T/C", "setting": "endpoint: mean survival time, dose: 80.0 mg/kg/injection, schedule: Q01DX009 (ip), vehicle: saline", "result": "167 % of control"}, {"measurement": "T/C", "setting": "endpoint: mean survival time, dose: 98.0 mg/kg/injection, schedule: Q01DX006 (ip), vehicle: saline", "result": "219 % of control"}, {"measurement": "T/C", "setting": "endpoint: mean survival time, dose: 98.0 mg/kg/injection, schedule: Q ##X009 (ip), vehicle: saline", "result": "227 % of control"}, {"measurement": "T/C", "setting": "endpoint: mean survival time, dose: 98.0 mg/kg/injection, schedule: Q## X Z (ip), vehicle: saline", "result": "227 % of control"}, {"measurement": "T/C", "setting": "endpoint: mean survival time, dose: 119.0 mg/kg/injection, schedule: Q01DX009 (oral), vehicle: saline", "result": "110 % of control"}, {"measurement": "T/C", "setting": "endpoint: mean survival time, dose: 120.0 mg/kg/injection, schedule: Q01DX009 (ip), vehicle: saline", "result": "167 % of control and 188 % of control"}, {"measurement": "T/C", "setting": "endpoint: mean survival time, dose: 125.0 mg/kg/injection, schedule: Q01DX009 (ip), vehicle: saline with Tween-80", "result": "161 % of control"}, {"measurement": "T/C", "setting": "endpoint: mean survival time, dose: 140.0 mg/kg/injection, schedule: Q01DX006 (ip), vehicle: saline", "result": "205 % of control"}, {"measurement": "T/C", "setting": "endpoint: mean survival time, dose: 140.0 mg/kg/injection, schedule: Q01DX009 (ip), vehicle: saline", "result": "176 % of control and 184 % of control"}, {"measurement": "T/C", "setting": "endpoint: mean survival time, dose: 140.0 mg/kg/injection, schedule: Q01DX009 (ip), vehicle: water", "result": "250 % of control"}, {"measurement": "T/C", "setting": "endpoint: mean survival time, dose: 140.0 mg/kg/injection, schedule: Q01DX Z (ip), vehicle: water", "result": "253 % of control"}, {"measurement": "T/C", "setting": "endpoint: mean survival time, dose: 140.0 mg/kg/injection, schedule: Q ##X009 (ip), vehicle: saline", "result": "246 % of control"}, {"measurement": "T/C", "setting": "endpoint: mean survival time, dose: 140.0 mg/kg/injection, schedule: Q## X Z (ip), vehicle: saline", "result": "246 % of control"}, {"measurement": "T/C", "setting": "endpoint: mean survival time, dose: 150.0 mg/kg/injection, schedule: Q01DX009 (ip), vehicle: saline with Tween-80", "result": "206 % of control"}, {"measurement": "T/C", "setting": "endpoint: mean survival time, dose: 175.0 mg/kg/injection, schedule: Q01DX009 (ip), vehicle: saline with Tween-80", "result": "215 % of control"}, {"measurement": "T/C", "setting": "endpoint: mean survival time, dose: 178.0 mg/kg/injection, schedule: Q01DX009 (oral), vehicle: saline", "result": "102 % of control"}, {"measurement": "T/C", "setting": "endpoint: mean survival time, dose: 180.0 mg/kg/injection, schedule: Q01DX009 (ip), vehicle: saline", "result": "227 % of control and 251 % of control"}, {"measurement": "T/C", "setting": "endpoint: mean survival time, dose: 200.0 mg/kg/injection, schedule: Q01DX009 (ip), vehicle: saline with Tween-80", "result": "439 % of control"}, {"measurement": "T/C", "setting": "endpoint: mean survival time, dose: 200.0 mg/kg/injection, schedule: Q04DX003 (ip), vehicle: saline with Tween-80", "result": "165 % of control"}, {"measurement": "T/C", "setting": "endpoint: mean survival time, dose: 225.0 mg/kg/injection, schedule: Q01DX009 (ip), vehicle: saline with Tween-80", "result": "427 % of control"}, {"measurement": "T/C", "setting": "endpoint: mean survival time, dose: 250.0 mg/kg/injection, schedule: Q04DX003 (ip), vehicle: saline with Tween-80", "result": "172 % of control"}, {"measurement": "T/C", "setting": "endpoint: mean survival time, dose: 267.0 mg/kg/injection, schedule: Q01DX009 (oral), vehicle: saline", "result": "110 % of control"}, {"measurement": "T/C", "setting": "endpoint: mean survival time, dose: 270.0 mg/kg/injection, schedule: Q01DX009 (ip), vehicle: saline", "result": "182 % of control"}, {"measurement": "T/C", "setting": "endpoint: mean survival time, dose: 280.0 mg/kg/injection, schedule: Q01DX009 (ip), vehicle: saline", "result": "89 % of control"}, {"measurement": "T/C", "setting": "endpoint: mean survival time, dose: 300.0 mg/kg/injection, schedule: Q04DX003 (ip), vehicle: saline with Tween-80", "result": "245 % of control"}, {"measurement": "T/C", "setting": "endpoint: mean survival time, dose: 350.0 mg/kg/injection, schedule: Q04DX003 (ip), vehicle: saline with Tween-80", "result": "318 % of control"}, {"measurement": "T/C", "setting": "endpoint: mean survival time, dose: 400.0 mg/kg/injection, schedule: Q01DX009 (oral), vehicle: saline", "result": "102 % of control"}, {"measurement": "T/C", "setting": "endpoint: mean survival time, dose: 400.0 mg/kg/injection, schedule: Q04DX003 (ip), vehicle: saline with Tween-80", "result": "401 % of control"}, {"measurement": "T/C", "setting": "endpoint: mean survival time, dose: 600.0 mg/kg/injection, schedule: Q01DX009 (oral), vehicle: saline", "result": "104 % of control"}, {"measurement": "T/C", "setting": "endpoint: median survival time, dose: 108.0 mg/kg/injection, schedule: Q01DX009 (ip), vehicle: water", "result": "166 % of control"}, {"measurement": "T/C", "setting": "endpoint: median survival time, dose: 180.0 mg/kg/injection, schedule: Q01DX009 (ip), vehicle: water", "result": "461 % of control"}]}]}
